Test results reported in patent publication US10414769B2, “5,8-dimethyl-9-phenyl-5,8-dihydro-6H-pyrazolo[3,4-h]quinazolin-2-yl)-(1H-pyrazol-3-yl)-amines as IGF-1R/IR inhibitors” (Boehringer Ingelheim International GmbH, priority 2015, dated 2019).

What was measured:
Assay type in all cases: biochemical
PRKACA (PKA) = target: T1, PRKACA (PKA) (Homo sapiens, UniProt P17612); experiment: Z'-LYTE kinase selectivity assay PRKACA
T1 construct: purchased Life Technologies P 2912
Source text: (§1) In order to compare the kinase selectivity of compounds (I) according to the invention with known prior art compounds the commercially provided SelectScreen® Kinase Profiling Service (Z′-LYTE®) was used (Life Technologies GmbH, Darmstadt, Germany) to investigate the ability of the compounds to inhibit a number of different, representatively selected human kinases. Further details regarding this service are available on the Life Technologies website at
(§2) The Z′-LYTE® biochemical assay employs a fluorescence-based, coupled-enzyme format and is based on the differential sensitivity of phosphorylated and non-phosphorylated peptides to proteolytic cleavage. The peptide substrate is labeled with two fluorophores—one at each end—that make up a FRET pair.
(§3) In the primary reaction, the kinase transfers the gamma-phosphate of ATP to a single tyrosine, serine or threonine residue in a synthetic FRET-peptide. In the secondary reaction, a site-specific protease recognizes and cleaves non-phosphorylated FRET-peptides. Phosphorylation of FRET-peptides suppresses cleavage by the Development Reagent. Cleavage disrupts FRET between the donor (i.e., coumarin) and acceptor (i.e., fluorescein) fluorophores on the FRET-peptide, whereas uncleaved, phosphorylated FRET-peptides maintain FRET. A ratiometric method, which calculates the ratio (the Emission Ratio) of donor emission to acceptor emission after excitation of the donor fluorophore at 400 nm, is used to quantitate reaction progress, as shown in the equation below.
(§4) The Test Compounds are screened at 1 μM.
The 2×PRKACA (PKA) (# P 2912)/Ser/Thr 01 (Z′-LYTE® Kinase Assay Kit—Ser/Thr 1 Peptide, # PV 3174) mixture is prepared in 50 mM HEPES pH 7.5, 0.01% BRIJ-35, 10 mM MgCl2, 1 mM EGTA. The final 10 μL Kinase Reaction consists of 0.03-0.15 ng PRKACA (PKA) and 2 μM Ser/Thr 01 in 50 mM HEPES pH 7.5, 0.01% BRIJ-35, 10 mM MgCl2, 1 mM EGTA. After the 1 hour Kinase Reaction incubation, 5 μL of a 1:4096 dilution of Development Reagent A is added.

ABL1 = target: T2, ABL1 (Homo sapiens, UniProt P00519); experiment: Z'-LYTE kinase selectivity assay ABL1
T2 construct: purchased Life Technologies P3049
Source text: as §1, §2, §3, §4
The 2×ABL1 (# P3049)/Tyr 02 (Z′-LYTE® Kinase Assay Kit—Tyrosine 2 Peptide, # PV 3191) mixture is prepared in 50 mM HEPES pH 7.5, 0.01% BRIJ-35, 10 mM MgCl2, 1 mM EGTA. The final 10 μL Kinase Reaction consists of 0.29-2.52 ng ABL1 and 2 μM Tyr 02 in 50 mM HEPES pH 7.5, 0.01% BRIJ-35, 10 mM MgCl2, 1 mM EGTA. After the 1 hour Kinase Reaction incubation, 5 μL of a 1:128 dilution of Development Reagent A is to added.

FGFR1 = target: T3, FGFR1 (Homo sapiens, UniProt P11362); experiment: Z'-LYTE kinase selectivity assay FGFR1
T3 construct: purchased Life Technologies PV 3146
Source text: as §1, §2, §3, §4
The 2×FGFR1 (# PV 3146)/Tyr 04 (Z′-LYTE® Kinase Assay Kit—Tyrosine 4 Peptide, # PV 3193) mixture is prepared in 50 mM HEPES pH 7.5, 0.01% BRIJ-35, 10 mM MgCl2, 4 mM MnCl2, 1 mM EGTA, 2 mM DTT. The final 10 μL Kinase Reaction consists of 0.44-2.45 ng FGFR1 and 2 μM Tyr 04 in 50 mM HEPES pH 7.5, 0.01% BRIJ-35, 10 mM MgCl2, 2 mM MnCl2, 1 mM EGTA, 1 mM DTT. After the 1 hour Kinase Reaction incubation, 5 μL of a 1:64 dilution of Development Reagent B is added.

NEK2 = target: T4, NEK2 (Homo sapiens, UniProt P51955); experiment: Z'-LYTE kinase selectivity assay NEK2
T4 construct: purchased Life Technologies PV 3360
T4 sequence (P51955 1-445): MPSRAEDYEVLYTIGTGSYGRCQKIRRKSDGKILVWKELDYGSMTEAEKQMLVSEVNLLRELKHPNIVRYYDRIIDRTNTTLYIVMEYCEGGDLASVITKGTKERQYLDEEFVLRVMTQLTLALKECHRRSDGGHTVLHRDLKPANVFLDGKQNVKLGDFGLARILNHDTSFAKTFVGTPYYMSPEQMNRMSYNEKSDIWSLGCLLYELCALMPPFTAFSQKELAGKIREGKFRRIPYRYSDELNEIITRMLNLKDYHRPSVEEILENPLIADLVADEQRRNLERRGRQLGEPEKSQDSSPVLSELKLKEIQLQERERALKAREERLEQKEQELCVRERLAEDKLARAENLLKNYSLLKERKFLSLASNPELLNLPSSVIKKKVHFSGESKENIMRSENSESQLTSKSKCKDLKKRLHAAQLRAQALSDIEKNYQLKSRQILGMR
Source text: as §1, §2, §3, §4
The 2×NEK2 (# PV 3360)/Ser/Thr 07 (Z′-LYTE® Kinase Assay Kit—Ser/Thr 7 Peptide, # PV 3180) mixture is prepared in 50 mM HEPES pH 7.5, 0.01% BRIJ-35, 10 mM MgCl2, 1 mM EGTA. The final 10 μL Kinase Reaction consists of 0.5-5.4 ng NEK2 and 2 μM Ser/Thr 07 in 50 mM HEPES pH 7.5, 0.01% BRIJ-35, 10 mM MgCl2, 1 mM EGTA. After the 1 hour Kinase Reaction incubation, 5 μL of a 1:65000 dilution of Development Reagent A is added.

T3 sequence (P11362 22-822): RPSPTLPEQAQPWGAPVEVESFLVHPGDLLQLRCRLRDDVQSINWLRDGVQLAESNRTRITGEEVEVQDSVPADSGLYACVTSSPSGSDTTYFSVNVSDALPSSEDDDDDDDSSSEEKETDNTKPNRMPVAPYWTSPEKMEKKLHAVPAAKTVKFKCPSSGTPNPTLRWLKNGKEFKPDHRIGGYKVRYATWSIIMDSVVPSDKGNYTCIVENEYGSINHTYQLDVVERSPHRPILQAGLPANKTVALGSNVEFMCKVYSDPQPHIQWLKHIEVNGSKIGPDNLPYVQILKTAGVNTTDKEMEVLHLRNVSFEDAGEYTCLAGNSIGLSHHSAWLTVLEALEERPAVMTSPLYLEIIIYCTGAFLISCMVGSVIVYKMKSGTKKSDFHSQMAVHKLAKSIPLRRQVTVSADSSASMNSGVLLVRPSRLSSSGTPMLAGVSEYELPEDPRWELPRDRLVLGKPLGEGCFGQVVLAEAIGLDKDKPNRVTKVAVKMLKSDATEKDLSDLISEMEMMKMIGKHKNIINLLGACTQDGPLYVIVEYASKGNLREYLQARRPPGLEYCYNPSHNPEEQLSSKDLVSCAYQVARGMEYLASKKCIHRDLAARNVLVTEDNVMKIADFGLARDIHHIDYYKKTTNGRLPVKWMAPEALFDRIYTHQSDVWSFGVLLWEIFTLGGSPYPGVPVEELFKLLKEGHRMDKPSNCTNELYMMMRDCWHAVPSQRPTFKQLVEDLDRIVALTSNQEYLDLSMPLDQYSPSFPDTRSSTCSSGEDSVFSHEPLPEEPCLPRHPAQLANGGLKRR
T2 sequence (P00519 whole entry): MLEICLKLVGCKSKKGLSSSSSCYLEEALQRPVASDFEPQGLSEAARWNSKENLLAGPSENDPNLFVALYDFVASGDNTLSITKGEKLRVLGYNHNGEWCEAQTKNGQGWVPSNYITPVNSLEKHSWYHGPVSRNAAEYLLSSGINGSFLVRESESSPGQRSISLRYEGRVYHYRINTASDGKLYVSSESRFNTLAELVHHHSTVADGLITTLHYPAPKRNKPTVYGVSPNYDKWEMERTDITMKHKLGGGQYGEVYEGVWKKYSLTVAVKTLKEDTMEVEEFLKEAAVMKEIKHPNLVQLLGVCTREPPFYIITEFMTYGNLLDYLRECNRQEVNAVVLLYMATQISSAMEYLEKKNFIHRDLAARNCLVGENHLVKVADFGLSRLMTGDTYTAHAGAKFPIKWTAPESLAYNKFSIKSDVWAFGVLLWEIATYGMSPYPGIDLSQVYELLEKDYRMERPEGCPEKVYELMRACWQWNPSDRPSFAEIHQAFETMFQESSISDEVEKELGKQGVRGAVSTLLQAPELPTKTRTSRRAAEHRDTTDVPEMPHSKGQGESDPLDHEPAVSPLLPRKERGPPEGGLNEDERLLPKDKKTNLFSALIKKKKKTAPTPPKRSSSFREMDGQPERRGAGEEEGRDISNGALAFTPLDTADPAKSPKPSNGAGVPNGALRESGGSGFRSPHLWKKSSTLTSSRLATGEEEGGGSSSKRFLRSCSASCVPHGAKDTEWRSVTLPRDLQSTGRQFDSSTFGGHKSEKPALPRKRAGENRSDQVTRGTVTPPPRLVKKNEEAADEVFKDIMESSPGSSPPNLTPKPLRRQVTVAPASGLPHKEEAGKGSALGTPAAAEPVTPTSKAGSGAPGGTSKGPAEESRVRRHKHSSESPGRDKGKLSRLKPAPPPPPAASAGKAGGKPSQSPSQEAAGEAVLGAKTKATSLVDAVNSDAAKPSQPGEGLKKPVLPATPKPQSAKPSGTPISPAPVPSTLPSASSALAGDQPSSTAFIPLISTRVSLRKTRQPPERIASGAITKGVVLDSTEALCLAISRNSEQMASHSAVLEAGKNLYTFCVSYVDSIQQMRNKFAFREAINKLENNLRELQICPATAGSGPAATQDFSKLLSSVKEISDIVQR

inhibition at 1 µM (PRKACA (PKA)) [%] | inhibition at 1 µM (ABL1) [%] | inhibition at 1 µM (FGFR1) [%] | inhibition at 1 µM (NEK2) [%] | Structure (SMILES)
17 | 17 | 32 | 32 | C[C@@H]1Cc2nn(C)c(-c3ccccc3)c2-c2nc(Nc3ccn(CCN4CCN(CC5CCCO5)CC4)n3)ncc21 (stereo partly shown) [Compound I-9]
13 | 27 | 34 | 29 | C[C@@H]1Cc2nn(C)c(-c3ccccc3)c2-c2nc(Nc3ccn(CCN4CCN(CC(C)(C)O)CC4)n3)ncc21 [Compound I-3]
-3 | 10 | 28 | 24 | COCCN1CCN(CCn2ccc(Nc3ncc4c(n3)-c3c(nn(C)c3-c3ccccc3)C[C@H]4C)n2)CC1 [Compound I-11]
16 | 10 | 29 | 22 | C[C@@H]1Cc2nn(C)c(-c3ccccc3)c2-c2nc(Nc3ccn(CCN4CCN(CC(=O)OC5CCOCC5)CC4)n3)ncc21 [Compound I-8]
-5 | 24 | 30 | 15 | C[C@@H]1Cc2nn(C)c(-c3ccccc3)c2-c2nc(Nc3ccn(CCN4CCN(C)CC4)n3)ncc21 [Compound I-1]
16 | 22 | 34 | 32 | CC(O)CN1CCN(CCn2ccc(Nc3ncc4c(n3)-c3c(nn(C)c3-c3ccccc3)C[C@H]4C)n2)CC1 (stereo partly shown) [Compound I-7]
22 | 17 | 40 | 25 | C[C@@H]1Cc2nn(C)c(-c3ccccc3)c2-c2nc(Nc3ccn(CCN4CCOCC4)n3)ncc21 [Compound I-2]
